Laboratory results as given in patent US20110263478A1, “SUR1 INHIBITORS FOR THERAPY” (priority 2008, published 2011).
“Also recorded” adds a separate entry of the source.

Columns and labels:
[1] = tested on: NCCa-ATP channels in bEnd.3 cells; test: Patch clamp, Na azide-induced ATP depletion current in endothelial cells exposed to hypoxia; assay type: cell-based, murine; details: 1 μM glibenclamide; hypoxic endothelial cells
Protocol: Patch clamp of endothelial cells was performed using a nystatin-perforated patch technique, to maintain the metabolic integrity of the cells. The identity of the activated channel can be assessed by measurement of the “reversal potential”, the potential at which an ion channel current reverses from inward to outward. With physiologically relevant concentrations of ions intracellularly and extracellularly (high potassium inside, high sodium outside), the reversal potential can unambiguously distinguish between a K^+ channel current such as KATP, which reverses negative to −50 mV and a non-selective cation channel current such as NCCa-ATP, which reverses near 0 mV.
Cell culture. Endothelial cell cultures from human brain microvessels, human aorta (ScienCell Research Laboratories), and murine brain microvessels (bEnd.3; ATCC), were grown at low density using media and supplements recommended by suppliers.

[2] = rat, in vivo
Protocol: (§1) SCI injury model. This study was performed in accordance with the guidelines of the Institutional Animal Care and Use Committee. Adult female Long-Evans rats (275-350 gm) were anesthetized (Ketamine, 60 mg/kg plus Xylazine, 7.5 mg/kg, i.p.). The dura at C4-5 was exposed via a left hemilaminectomy. A hemi-cervical spinal cord contusion was created using a blunt force impactor (1.3-mm impactor head driven by a 10 gm weight dropped vertically 25 mm) (Soblo sky et al., 2001; Gensel et al., 2006). After SCI, animals were given 10 ml of glucose-free normal saline s.q. Rectal temperature was maintained at ˜37° C. using a servo-controlled warming blanket. Blood gases and serum glucose 10-15 min post-SCI were: pO2, 95±6 mm Hg; pCO2, 46±3 mm Hg; pH, 7.33±0.01; glucose 258±17 mg/dl in controls and pO2, 96±7 mm Hg; pCO2, 45±2 mm Hg; pH, 7.37±0.01; glucose 242±14 mg/dl in glibenclamide-treated animals.
(§2) Drug delivery. […] During the course of the project, slightly different formulations of drug were used, with the best results obtained using stock solutions made by placing 50 mg (or 25 mg) of drug into 10 ml DMSO, and infusion solutions made by placing 400 μl (or 800 μl) stock into 4.6 ml (or 4.2 ml) unbuffered saline (0.9% NaCl) and adjusting the pH to ˜8.5 using 0.1 N NaOH.

[3] = tested on: rodent models of ischemic stroke; details: cited from earlier work
[4] = cited from earlier work
[5] = tested on: rats with spinal cord injury (SCI); details: rodent model of SCI (Simard et al., 2007); cited from earlier work
[6] = tested on: recombinant MMP-2 and MMP-9; test: Zymography of gelatinase activity of recombinant MMP; assay type: biochemical; details: glibenclamide 10 μM; MMP-inhibitor II 300 nM
Protocol: In post-ischemic reperfusion of CNS tissues, catastrophic failure of capillary integrity has been attributed to the action of matrix metalloproteinases (MMP) (Wang et al., 2004).
Zymography of recombinant MMP-2 and MMP-9 (Sigma) was performed as described (Sumii and Lo, 2002).

[7] = tested on: rats with spinal cord injury (SCI); test: Rat cervical SCI model: neurobehavioral assessment (inclined plane, paw placement, rearing); assay type: in vivo
Protocol: as §1, with “blanket.” for “blanket. Blood gases and serum glucose 10-15 min post-SCI were: pO2, 95±6 mm Hg; pCO2, 46±3 mm Hg; pH, 7.33±0.01; glucose 258±17 mg/dl in controls and pO2, 96±7 mm Hg; pCO2, 45±2 mm Hg; pH, 7.37±0.01; glucose 242±14 mg/dl in glibenclamide-treated animals.”
For in vivo gene suppression of SUR1, we used oligodeoxynucleotides that were phosphorothioated at 4 distal bonds to protect against endogenous nucleases (35).
Neurobehavioral assessment. All measurements were performed by blinded evaluators. Performance on the inclined plane was evaluated as described (Rivlin and Tator, 1977). To assess paw placement and vertical exploration (rearing) (Nikulina et al., 2004) animals were videotaped while in a translucent cylinder (19×20 cm). Rearing was quantified as the number of seconds spent with both front paws elevated above shoulder-height during a 3-min period of observation.

[8] = Tail tip bleeding time in uninjured rats; assay type: in vivo, rat; details: for effect on bleeding time: same infusion dose
Protocol: Bleeding times were measured using tail tip bleeding as described (Lorrain et al., 2003).

[9] = tested on: rats with spinal cord injury (SCI); test: Rat cervical SCI model: histology, capillaries and lesion size; assay type: in vivo
Protocol: as §1, §2
Lesion size. At 7 d post-SCI, cords were paraffin sectioned and stained with H&E. Lesion volumes were calculated from lesion areas measured on serial sections every 250 μm.
Immunohistochemistry. Cryosections were immunolabeled (Chen et al., 2003; Simard et al., 2006) using primary antibodies directed against SUR1 (Santa Cruz, C-16; 1:200; 1 h at RT, 48 h at 4° C.), SUR2 (Santa Cruz, H-80; 1:200; 1 h at RT, 48 h at 4° C.), GFAP (Sigma, C-9205; 1:500), and vimentin (Sigma, monoclonal CY3 conjugated; 1:100). Quantitative immunofluorescence was performed as described (Gerzanich et al., 2003).

[10] = loading dose 10 μg/kg i.p. plus 200 ng/hr s.q.; cited from earlier work
[11] = Testing of glibenclamide doses for effect on serum glucose in rats; assay type: in vivo, rat; details: dose1-dose4 (loading 2.5-20 μg/kg i.p., infusion 75-600 ng/hr s.q.); uninjured, stroke and SCI rats
[12] = model of malignant cerebral edema
[13] = 1, 3 and 7 d post-SCI, vs vehicle

Compound: COc1ccc(Cl)cc1C(=O)NCCc1ccc(S(=O)(=O)NC(=O)NC2CCCCC2)cc1 [glibenclamide]
- block of Na azide-induced ohmic current [1]: blocked
- serum glucose [2]: 242 ± 14 mg/dL
- reduction of cerebral edema (excess water) [3, 12]: half
- reduction of mortality [3, 12]: half
- reduction of lesion volume ([3]; stroke induced by thromboemboli): half
- pKa [4]: 6.3
- reduction in lesion volume after SCI [5]: 3 fold
- gelatinase activity of recombinant MMP [6]: the same; also recorded: not affected
- performance on inclined plane [7, 13]: significantly better performance
- vertical exploratory behavior (rearing) [7, 13]: significantly better performance
- vertical exploration (rearing), time during 3-min observation ([7]; 1 d post-SCI, 200 ng/h s.q.): 42 ± 7 s
- ipsilateral paw placement ([7]; 1 d post-SCI, vs vehicle): significantly better performance
- general mobility ([7]; post-SCI, vs vehicle-treated rats generally not mobile): typically ambulatory and often exhibited proficient exploratory behavior
- tail bleeding time ([8]; n=3-5, P=0.6): 21.5 ± 3.1 s
- effect on bleeding time [8]: no effect
- effect on bleeding time ([8]; listed as Glibenclamide): did not affect
- lesion, reactive gliosis and myelin (GFAP and myelin labeling) ([9]; 24 h post-SCI, vs controls): smaller lesions, less reactive gliosis and better myelin preservation
- lesion volume, reduction compared to controls ([9]; 7 d post-SCI): 3 fold
- vimentin(+) capillaries in region of injury ([9]; post-SCI, vs controls): the capillaries were elongated and appeared more normal
- effect on serum glucose [10]: minimal effects
- estimated serum concentration [10]: < 10 nM
- effect of doses on serum glucose [11]: only the highest are hypoglycemogenic, but only mildly so
